Test results: patent publication US11718628B2, “SREBP inhibitors comprising a 6-membered central ring” (Capulus Therapeutics, LLC, priority 2018, dated 2023)
Where two headings read alike, the source gives them in different places. Values belong to the compound of their own block, whether it stands above or below them.

Key:
[1] = Plasma and liver compound levels in mice after oral administration; assay type: in vivo; conditions: 30 mpk; for concentration at 6 h / concentration at 24 h: mouse, 30 mg/kg
Experimental: (§1) The pharmacodynamic properties of selected compounds were evaluated in mice. The animals were housed in cages with clean bedding, and maintained and monitored for good health in accordance with Test Facility SOPs and at the discretion of the laboratory animal veterinarian. Certified rodent diet was provided. Food and water was available ad libitum. Environmental controls for the animal room were set to maintain a temperature of 22° C. to 25° C., humidity of 40-70% RH, and a 12-hour light/[…]. Normal healthy animals certified by the attending veterinarian were selected and acclimatized for minimum three days prior to initiation of study. Animals were identified with body markings.
(§2) Aliquots of the compounds being evaluated were weighed and triturated with 0.5% methylcellulose (with the addition of 5% N-methyl pyrrolidone when required to remove clumping, as for Z-806) to an appropriate dose concentration. Vials were labeled with the information about study number, test item, concentration and date of preparation. A description of appearance of formulation was recorded (e.g., color, turbidity, etc.). The composition of formulation vehicle was recorded. An aliquot of each dose solution was taken before the dosing began and after dosing was finished, and stored at approximately −20° C. or below for subsequent analysis. The animals were dosed orally through oral gavage needle, and time of dosing was recorded.
After dosing, the mice were anesthetized using gaseous anesthesia. Blood samples were collected through a capillary, guided in retro-orbital plexus, at 6 h or at 24 h. Approximately 100 uL of blood was collected from each mouse, in pre-labeled tubes. The collected blood was stored on ice prior to centrifugation. Blood samples were then centrifuged within 1 hour of collection to separate plasma. Centrifugation was conducted at 2500×g for 15 minutes at 4° C. The plasma was separated and transferred to pre-labeled micro-centrifuge tubes and promptly frozen at −80±10° C. until bioanalysis.
(§3) Liver Collection at 6 h or 24 h: Immediately after blood withdrawal for pharmacokinetic evaluation (at 6 or at 24 h), liver tissue was collected without perfusion. Animals were euthanized using carbon dioxide gas in a CO2 chamber. The whole blood was drained by cutting the both side jugular vein and abdominal aorta. The liver was separated out. All the liver samples were divided in two parts. The first part (200 mg approx.) was snap frozen using liquid nitrogen as soon as possible. These samples were immediately transferred to −80° C. for storage. The remaining part was weighed and used for bioanalysis.

[2] = Log D by octanol/aqueous buffer partitioning; assay type: physicochemical; conditions: pH 7.4, 1-octanol/buffer
Experimental: The Log D of selected compounds was evaluated by octanol/aqueous buffer partitioning. 500 μL of organic phase (1-octanol) was added to each well of a 2 mL deep well plate, followed by 500 μL of buffer and 15 μL of test compound in DMSO (0.15 mM). The plate was vortexed for 10 seconds and incubated at room temperature for 1 hr on a plate shaker at 200 rpm. After incubation, the samples were allowed to equilibrate for 20 min and then centrifuged at 4000 rpm for 30 min for complete phase separation. The distribution of test compound in buffer and octanol phase was analyzed by HPLC-UV. Log D=Log (Area of Octanol/Area of Buffer).

[3] = test system: liver gene expression (ACACA, ACLY, FASN, LSS, PNPLA3); assay: Liver gene expression in mice after oral administration; assay type: in vivo; conditions: 30 mpk, vs vehicle
Experimental: as §1, §2, §3
RNA Processing and Gene Expression Analysis: Liver Tissue RNA was harvested with the RNEasy kit and 20-100 ng used to synthesize cDNA with random primers following the manufacturer's protocol. Quantitative PCR was performed on 1 pg to 100 ng cDNA for the following genes: ACACA, ACLY, FASN, LSS, PNPLA3. Gene expression levels were determined using ΔΔCT method comparing treated to vehicle treated samples as a baseline, and fold change calculated. The average value for all 5 genes above was averaged and termed to Total Fold Change The results from this evaluation are presented in Table 8.

[4] = In vivo pharmacokinetic properties in mice (IV and PO); design: species or system C57BL/6J mice; conditions: mouse, in vivo
Experimental: (§4) The in vivo pharmacokinetic properties of compounds by both intravenous and oral administration were evaluated in male Sprague Dawley rats or C57BL/6J mice.
(§5) Animals were housed in cages with clean bedding. Certified rodent diet was provided. Water was available ad libitum. Environmental controls for the animal room were set to maintain a temperature of 22° C. to 25° C., humidity of 40-70% RH, and a 12-hour light/12-hour dark cycle. Normal healthy animals certified by the attending veterinarian were selected and acclimatized for minimum three days prior to initiation of study.
(§6) To evaluate pharmacokinetic properties of intravenous delivery, male Sprague Dawley rats were administered 2.00 mg compound/kg animal weight through the tail vein. The concentration of the compound in the plasma of the animals was evaluated at 0.083, 0.25, 0.5, 1, 2, 4, 8, 12 and 24 hr by taking blood samples from the cannulated jugular vein. For the C5Bl/6J mice, blood samples were collected through a capillary, guided in retro-orbital plexus.
[…] The concentration of compound in the plasma of the animals was evaluated at 0.25, 0.5, 1, 2, 4, 6, 8, 12 and 24 hr by taking blood samples from the cannulated jugular vein (rats) or through a capillary, guided in retro-orbital plexus (mice).

[5] = In vivo pharmacokinetic properties in rats (IV and PO); design: species or system male Sprague Dawley rats
Experimental: as §4, §5
Surgical Procedure for Jugular Vein Cannulation of Rats: Rats were anaesthetized with a single dose of ketamine 50 mg/kg i.p.+xylazine 6 mg/kg i.p. The right jugular vein was exposed, a loose ligature was placed caudally, and the cranial end of vein was ligated. A small incision was made between the ligatures into which the catheter (polyethylene 50 tubing of internal diameter 0.58 mm and outer diameter 0.96 mm) was inserted. The catheter was secured in place by tying the loose ligature around the catheterized vessel. A small incision was made in the scapular region to serve as the exit site of the catheter. The catheter was subcutaneously tunneled and exteriorized through scapular incision. A stay suture was placed in the scapular area. Patency was tested, and catheter was filled with a locking solution (heparinized saline) and sealed with a stainless steel plug. The incision was then sutured with sterile suturing material. Anti-septic solution was applied to the sutured site and animal was placed back in the home cage.
as §6
To evaluate pharmacokinetic properties of oral delivery, rats (male Sprague Dawley rats) or mice (C5Bl/6J) were administered 10 mg compound/kg animal weight by mouth. The concentration of compound in the plasma of the animals was evaluated at 0.25, 0.5, 1, 2, 4, 6, 8, 12 and 24 hr by taking blood samples from the cannulated jugular vein (rats) or through a capillary, guided in retro-orbital plexus (mice).

concentration at 6 h ([1]; liver, read-out: Liver ng/mg (6 h)): > 1e+06 ng/g | concentration at 24 h ([1]; liver, read-out: Liver ng/mg 24 h): > 1e+06 ng/g | concentration at 6 h ([1]; plasma, read-out: Plasma ng/mL (6 h)): > 1000 ng/mL | concentration at 24 h ([1]; plasma, read-out: Plasma ng/mL (24 h)): > 1000 ng/mL | LogD ([2]; 1-octanol/aqueous buffer, read-out: LogD): 1.98 | bioavailability ([4]; C57BL/6J): 58% | AUC(0-t) ([4]; C57BL/6J, iv, 2 mg/kg): 1.54 µg·h/mL | Vd ([4]; C57BL/6J, iv, 2 mg/kg): 8.91 L/kg | clearance ([4]; C57BL/6J, iv, 2 mg/kg): 1.26 L/h/kg | half-life ([4]; C57BL/6J, iv, 2 mg/kg): 4.89 h | AUC(0-t) ([4]; C57BL/6J, po, 3 mg/kg): 1.37 µg·h/mL | Tmax ([4]; C57BL/6J, po, 3 mg/kg): 0.25 h | half-life ([4]; C57BL/6J, po, 3 mg/kg): 3.51 h | AUC(0-t) ([5]; male, Sprague Dawley, rat, plasma, 10 mg/kg, heading: Oral Administration AUC0-last, PO, 10 mg/kg): 0.272 µg·h/mL | AUC(0-t) ([5]; male, Sprague Dawley, rat, plasma, IV, 2 mg/kg, read-out: Intravenous Delivery (IV) AUC0-last): 2.63 µg·h/mL | clearance ([5]; male, Sprague Dawley, rat, plasma, IV, 2 mg/kg, read-out: Intravenous Delivery (IV) CL): 0.768 L/h/kg | half-life ([5]; male, Sprague Dawley, rat, plasma, IV, 2 mg/kg, read-out: Intravenous Delivery (IV) T1/2 (converted)): 2.03 h | Vd ([5]; male, Sprague Dawley, rat, plasma, IV, 2 mg/kg, read-out: Intravenous Delivery (IV) Vd): 2.26 L/kg | bioavailability ([5]; male, Sprague Dawley, rat, plasma, PO 10 mg/kg vs IV 2 mg/kg, read-out: % F (Bioavailability of oral delivery)): 2.1% | half-life ([5]; male, Sprague Dawley, rat, plasma, PO, 10 mg/kg, read-out: Oral Administration (PO) T1/2 (converted)): 2.5 h | Tmax ([5]; male, Sprague Dawley, rat, plasma, PO, 10 mg/kg, read-out: Oral Administration (PO) Tmax): 0.33 h
Compound: O=C(c1ccc(-c2cncc(-c3ccnc4c3OCCO4)c2)c(Cl)c1)N1CCC(O)CC1 [Compound Z-806, (3-chloro-4-(5-(2,3-dihydro-[1,4]dioxino[2,3-b]pyridin-8-yl)pyridin-3-yl)phenyl)(4-hydroxypiperidin-1-yl)methanone]
Total Gene FC Time (6 h) [3]: ++ (0.51-0.7509 = ++) | Total Gene FC Time (24 h) [3]: +++ (0-0.509 = +++)

Liver ng/mg (6 h) [1]: >1000 ng/mg | Plasma ng/mL (6 h) [1]: 100 to 1000 ng/mL | Liver ng/mg 24 h [1]: >100 ng/mg | Plasma ng/mL (24 h) [1]: <100 ng/mL | LogD [2]: 3.76 | % F (Bioavailability of oral delivery) [4]: 33% | Intravenous Delivery (IV) AUC0-last ([4]; iv, 2 mg/kg): 0.913 µg·h/mL | Intravenous Delivery (IV) CL ([4]; iv, 2 mg/kg): 2.18 L/h/kg | Intravenous Delivery (IV) T1/2 ([4]; iv, 2 mg/kg): 2.02 h | Intravenous Delivery (IV) Vd ([4]; iv, 2 mg/kg): 6.33 L/kg | Oral Administration (PO) AUC0-last ([4]; po, 10 mg/kg): 1.51 µg·h/mL | Oral Administration (PO) T1/2 ([4]; po, 10 mg/kg): 1.24 h | Oral Administration (PO) Tmax ([4]; po, 10 mg/kg): 0.25 h | Intravenous Delivery (IV) CL ([5]; IV, 2 mg/kg): 1 L/h/kg | Intravenous Delivery (IV) T1/2 ([5]; IV, 2 mg/kg): 1.14 h | Intravenous Delivery (IV) Vd ([5]; IV, 2 mg/kg): 1.64 L/kg | % F (Bioavailability of oral delivery) ([5]; PO 10 mg/kg vs IV 2 mg/kg): 29% | Oral Administration (PO) AUC0-last ([5]; PO, 10 mg/kg): 2989 | Oral Administration (PO) T1/2 ([5]; PO, 10 mg/kg): 0.92 h | Oral Administration (PO) Tmax ([5]; PO, 10 mg/kg): 0.75 h
Compound: CC1(O)CCN(C(=O)c2ccc(-c3cncc(-c4ccnc(C(C)(C)C)c4)c3)c(Cl)c2)CC1 [Compound Z-780]
Total Gene FC Time (6 h) [3]: + (>0.751 = +) | Total Gene FC Time (24 h) [3]: ++ (0.51-0.7509 = ++)

Compound: CC(C)(C)c1cc(-c2cccc(-c3ccc(C(=O)N4CCC(O)CC4)cc3Cl)c2)ccn1 [Compound Z-744]
Liver ng/mg (6 h) [1]: >1000 ng/mg | Plasma ng/mL (6 h) [1]: 100 to 1000 ng/mL | Liver ng/mg 24 h [1]: >1000 ng/mg | Plasma ng/mL (24 h) [1]: 100 to 1000 ng/mL | LogD [2]: 4.12 | Total Gene FC Time (6 h) [3]: ++ (0.51-0.7509 = ++) | Total Gene FC Time (24 h) [3]: + (>0.751 = +) | Intravenous Delivery (IV) CL ([5]; IV, 2 mg/kg): 0.786 L/h/kg | Intravenous Delivery (IV) T1/2 ([5]; IV, 2 mg/kg): 1.91 h | Intravenous Delivery (IV) Vd ([5]; IV, 2 mg/kg): 2.16 L/kg | % F (Bioavailability of oral delivery) ([5]; PO 10 mg/kg vs IV 2 mg/kg): 8.6% | Oral Administration (PO) AUC0-last ([5]; PO, 10 mg/kg): 1058 | Oral Administration (PO) T1/2 ([5]; PO, 10 mg/kg): 2.35 h | Oral Administration (PO) Tmax ([5]; PO, 10 mg/kg): 2 h
